From US12692235B2, “Fused ring compound and application thereof” (WUHAN LL SCIENCE AND TECHNOLOGY DEVELOPMENT CO., LTD., priority 2019, dated 2026)

target: T1, hP2X4 (human purinergic P2X receptor subtype 4) (Homo sapiens, UniProt Q99571); details: P2X4 IC50 (nM), HEK293 cells stably expressing hP2X4; agonist BZ-ATP 2.5 μM; FLIPR calcium
T1 sequence (Q99571 1-404 isoform Q99571-2): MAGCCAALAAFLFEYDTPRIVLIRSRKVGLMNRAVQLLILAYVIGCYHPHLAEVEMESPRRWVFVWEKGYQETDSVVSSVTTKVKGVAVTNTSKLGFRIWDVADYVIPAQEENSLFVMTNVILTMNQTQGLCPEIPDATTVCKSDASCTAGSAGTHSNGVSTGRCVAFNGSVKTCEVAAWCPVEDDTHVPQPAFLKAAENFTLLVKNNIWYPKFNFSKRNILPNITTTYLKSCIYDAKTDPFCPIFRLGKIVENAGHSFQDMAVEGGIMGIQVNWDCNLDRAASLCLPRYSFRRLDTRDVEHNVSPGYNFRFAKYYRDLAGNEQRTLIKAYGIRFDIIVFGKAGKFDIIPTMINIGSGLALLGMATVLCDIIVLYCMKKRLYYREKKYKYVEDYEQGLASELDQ
Description: Cells at 400,000 cells/mL were seeded into a 384-well plate (10,000 cells/well) 18-24 h prior to the FLIPR experiment and then incubated overnight in a cell incubator. […] Each well was added with 20 μL of 0.5×Calcium 6 fluorescent dye (Molecular Devices, R8190) and then the cells were subjected to dye-loading incubation at 37° C. for 1.5 h. Each well was added with 10 μL of respective test compound (dissolved in DMSO at a concentration of 10 mM and serially diluted with buffer) or vehicle and the mixture was equilibrated for 30 min at room temperature.

IC50	Compound
200 to 5000 nM	NS(=O)(=O)c1cc(NC(=O)Cc2ccccc2Cl)cc2nc(C3CC3)ccc12 [Compound 85, 2-(2-chlorophenyl)-N-(2-cyclopropyl-5-sulfamoylquinolin-7-yl)acetamide]
200 to 5000 nM	C#Cc1ccc2c(S(N)(=O)=O)cc(NC(=O)Cc3ccccc3Cl)cc2n1 [Compound 86, 2-(2-chlorophenyl)-N-(2-ethynyl-5-sulfamoylquinolin-7-yl)acetamide]
10 to 50 nM	CC#Cc1ccc2c(S(N)(=O)=O)cc(NC(=O)Cc3ccccc3Cl)cc2n1 [Compound 87, 2-(2-chlorophenyl)-N-(2-(prop-1-yn-1-yl)-5-sulfamoylquinolin-7-yl)acetamide]
50 to 200 nM	CN(C)c1ccc2c(S(N)(=O)=O)cc(NC(=O)Cc3ccccc3Cl)cc2n1 [Compound 88, 2-(2-chlorophenyl)-N-(2-(dimethylamino)-5-sulfamoylquinolin-7-yl)acetamide]
200 to 5000 nM	NS(=O)(=O)c1cc(NC(=O)Cc2ccccc2Cl)cc2nc(N3CCCC3)ccc12 [Compound 89, (2-chlorophenyl)-N-(2-(pyrrolidin-1-yl)-5-sulfamoylquinolin-7-yl)acetamide]
50 to 200 nM	N#Cc1nccc2c(S(N)(=O)=O)cc(NC(=O)Cc3ccccc3Cl)cc12 [Compound 90]
200 to 5000 nM	COc1nccc2c(S(N)(=O)=O)cc(NC(=O)Cc3c(Cl)cccc3Cl)cc12 [Compound 91, 2-(2,6-dichlorophenyl)-N-(1-methoxy-5-sulfamoylisoquinolin-7-yl)acetamide]
50 to 200 nM	COc1nccc2c(S(N)(=O)=O)cc(NC(=O)Cc3ccc(Cl)cc3Cl)cc12 [Compound 92, 2-(2,4-dichlorophenyl)-N-(1-methoxy-5-sulfamoylisoquinolin-7-yl)acetamide]
50 to 200 nM	COc1nccc2c(S(N)(=O)=O)cc(NC(=O)Cc3cc(F)ccc3Cl)cc12 [Compound 93, 2-(2-Chloro-5-fluorophenyl)-N-(1-methoxy-5-sulfamoylisoquinolin-7-yl)acetamide]
50 to 200 nM	COc1nccc2c(S(N)(=O)=O)cc(NC(=O)Cc3ccc(F)cc3Cl)cc12 [Compound 94, 2-(2-chloro-4-fluorophenyl)-N-(1-methoxy-5-sulfamoylisoquinolin-7-yl)acetamide]
200 to 5000 nM	COc1ccc(F)cc1CC(=O)Nc1cc(S(N)(=O)=O)c2ccnc(OC)c2c1 [Compound 95, 2-(5-fluoro-2-methoxyphenyl)-N-(1-methoxy-5-sulfamoylisoquinolin-7-yl)acetamide]
200 to 5000 nM	COc1nccc2c(S(N)(=O)=O)cc(NC(=O)Cc3ccccc3OC(F)(F)F)cc12 [Compound 96, N-(1-methoxy-5-sulfamoylisoquinolin-7-yl)-2-(2-(trifluoromethoxy)phenyl)acetamide]
50 to 200 nM	COc1nccc2c(S(N)(=O)=O)cc(NC(=O)Cc3cccc(F)c3Cl)cc12 [Compound 97, 2-(2-chloro-3-fluorophenyl)-N-(1-methoxy-5-sulfamoylisoquinolin-7-yl)acetamide]
10 to 50 nM	COC(=O)N1CCc2c(cc(NC(=O)Cc3ccccc3Cl)cc2S(N)(=O)=O)C1 [Compound 99, methyl 7-(2-(2-chlorophenyl)acetamido)-5-sulfamoyl-3,4-dihydroisoquinoline-2(1H)-carboxylate]
10 to 50 nM	CC(C)OC(=O)N1CCc2c(cc(NC(=O)Cc3ccccc3Cl)cc2S(N)(=O)=O)C1 [Compound 100, isopropyl-7-(2-(2-chlorophenyl)acetamido)-5-sulfamoyl-3,4-dihydroisoquinoline-2(1H)-carboxylate]
10 to 50 nM	NS(=O)(=O)c1cc(NC(=O)Cc2ccccc2Cl)cc2c1CCN(C(=O)OC1CC1)C2 [Compound 101, cyclopropyl-7-(2-(2-chlorophenyl)acetamido)-5-sulfamoyl-3,4-dihydroisoquinoline-2(1H)-carboxylate]
10 to 50 nM	CC(=O)N1CCc2c(cc(NC(=O)Cc3ccccc3Cl)cc2S(N)(=O)=O)C1 [Compound 102, N-(2-acetyl-5-sulfamoyl-1,2,3,4-tetrahydroisoquinolin-7-yl)-2-(2-chlorophenyl)acetamide]
10 to 50 nM	NS(=O)(=O)c1cc(NC(=O)Cc2ccccc2Cl)cc2c1CCN(C1CC1)C2 [Compound 103, 2-(2-chlorophenyl)-N-(2-cyclopropyl-5-sulfamoyl-1,2,3,4-tetrahydroisoquinolin-7-yl)acetamide]

The next lines start with the compound.

Compound	IC50
COc1nccc2c(S(N)(=O)=O)cc(NC(=O)Cc3ccccc3C#N)cc12 [Compound 64, 2-(2-cyanophenyl)-N-(1-methoxy-5-sulfamoylisoquinolin-7-yl)acetamide]	200 to 5000 nM
COc1ccc2c(S(N)(=O)=O)cc(NC(=O)Cc3ccccc3Cl)cc2n1 [Compound 65, 2-(2-chlorophenyl)-N-(2-methoxy-5-sulfamoylquinolin-7-yl)acetamide]	10 to 50 nM
NS(=O)(=O)c1cc(NC(=O)Cc2ccccc2Cl)cc2nc(OCCO)ccc12 [Compound 66, 2-(2-chlorophenyl)-N-(2-(2-hydroxyethoxy)-5-sulfamoylquinolin-7-yl)acetamide]	50 to 200 nM
NS(=O)(=O)c1cc(NC(=O)Cc2ccccc2Cl)cc2nc(N3CCCCC3)ccc12 [Compound 67, 2-(2-chlorophenyl)-N-(2-(piperidin-1-yl)-5-sulfamoylquinolin-7-yl)acetamide]	200 to 5000 nM
NS(=O)(=O)c1cc(NC(=O)Cc2ccccc2Cl)cc2nc(N3CCOCC3)ccc12 [Compound 68, 2-(2-chlorophenyl)-N-(2-morpholino-5-sulfamoylquinolin-7-yl)acetamide]	50 to 200 nM
CN1CCN(c2ccc3c(S(N)(=O)=O)cc(NC(=O)Cc4ccccc4Cl)cc3n2)CC1 [Compound 69, 2-(2-chlorophenyl)-N-(2-(4-methylpiperazin-1-yl)-5-sulfamoylquinolin-7-yl)acetamide]	200 to 5000 nM
CN1CCN(c2ccc3c(S(N)(=O)=O)cc(NC(=O)Cc4ccccc4Cl)cc3n2)CC1=O [Compound 70, 2-(2-chlorophenyl)-N-(2-(4-methyl-3-carbonylpiperazin-1-yl)-5-sulfamoylquinolin-7-yl)acetamide]	50 to 200 nM
COc1ccc(Oc2ccc3c(S(N)(=O)=O)cc(NC(=O)Cc4ccccc4Cl)cc3n2)cc1 [Compound 72, 2-(2-chlorophenyl)-N-(2-(4-methoxyphenoxy)-5-sulfamoylquinolin-7-yl)acetamide]	50 to 200 nM
CC(C)Nc1ccc2c(S(N)(=O)=O)cc(NC(=O)Cc3ccccc3Cl)cc2n1 [Compound 73, 2-(2-chlorophenyl)-N-(2-(isopropylamino)-5-sulfamoylquinolin-7-yl)acetamide]	200 to 5000 nM
COCCOc1ccc2c(S(N)(=O)=O)cc(NC(=O)Cc3ccccc3Cl)cc2n1 [Compound 74, 2-(2-chlorophenyl)-N-(2-(2-methoxyethoxy)-5-sulfamoylquinolin-7-yl)acetamide]	50 to 200 nM
COc1cc2c(S(N)(=O)=O)cc(NC(=O)Cc3ccccc3Cl)cc2cn1 [Compound 75, 2-(2-chlorophenyl)-N-(3-methoxy-5-sulfamoylisoquinolin-7-yl)acetamide]	50 to 200 nM
NS(=O)(=O)c1cc(NC(=O)Cc2ccccc2Cl)cc2cnc(OCCO)cc12 [Compound 76, 2-(2-chlorophenyl)-N-(3-(2-hydroxyethoxy)-5-sulfamoylisoquinolin-7-yl)acetamide]	50 to 200 nM
NS(=O)(=O)c1cc(NC(=O)Cc2ccccc2Cl)cc2cnc(N3CCCCC3)cc12 [Compound 77, 2-(2-chlorophenyl)-N-(3-(piperidin-1-yl)-5-sulfamoylisoquinolin-7-yl)acetamide]	50 to 200 nM
NS(=O)(=O)c1cc(NC(=O)Cc2ccccc2Cl)cc2cnc(N3CCOCC3)cc12 [Compound 78, 2-(2-chlorophenyl)-N-(3-morpholino-5-sulfamoylisoquinolin-7-yl)acetamide]	50 to 200 nM
CN1CCN(c2cc3c(S(N)(=O)=O)cc(NC(=O)Cc4ccccc4Cl)cc3cn2)CC1 [Compound 79, 2-(2-chlorophenyl)-N-(3-(4-methylpiperazin-1-yl)-5-sulfamoylisoquinolin-7-yl)acetamide]	50 to 200 nM
CN1CCN(c2cc3c(S(N)(=O)=O)cc(NC(=O)Cc4ccccc4Cl)cc3cn2)CC1=O [Compound 80, 2-(2-chlorophenyl)-N-(3-(4-methyl-3-carbonylpiperazin-1-yl)-5-sulfamoylisoquinolin-7-yl)acetamide]	50 to 200 nM
COc1ccc(Nc2cc3c(S(N)(=O)=O)cc(NC(=O)Cc4ccccc4Cl)cc3cn2)cc1 [Compound 81, 2-(2-chlorophenyl)-N-(3-((4-methoxyphenyl)amino)-5-sulfamoylisoquinolin-7-yl)acetamide]	200 to 5000 nM
COc1ccc(Oc2cc3c(S(N)(=O)=O)cc(NC(=O)Cc4ccccc4Cl)cc3cn2)cc1 [Compound 82, 2-(2-chlorophenyl)-N-(3-(4-methoxyphenoxy)-5-sulfamoylisoquinolin-7-yl)acetamide]	200 to 5000 nM
CC(C)Nc1cc2c(S(N)(=O)=O)cc(NC(=O)Cc3ccccc3Cl)cc2cn1 [Compound 83, 2-(2-chlorophenyl)-N-(3-(isopropylamino)-5-sulfamoylisoquinolin-7-yl)acetamide]	50 to 200 nM
COCCOc1cc2c(S(N)(=O)=O)cc(NC(=O)Cc3ccccc3Cl)cc2cn1 [Compound 84, 2-(2-chlorophenyl)-N-(3-(2-methoxyethoxy)-5-sulfamoylisoquinolin-7-yl)acetamide]	50 to 200 nM
NS(=O)(=O)c1cc(NC(=O)Cc2ccccc2Cl)cc2c1CCNC2 [Compound 98, 2-(2-chlorophenyl)-N-(5-sulfamoyl-1,2,3,4-tetrahydroisoquinolin-7-yl)acetamide]	200 to 5000 nM
